Data: US11413278B2, “Compounds and methods for promoting stress resistance” (priority 2015, dated 2022)
Like-named read-outs stand apart in the source and are kept apart here.

Assays:
[1] = test system: WI-38 cells; test: MMS resistance assay; assay type: cell-based, human; conditions: for fold induction at 10 µM: Homo sapiens, 12 h, normalized ATP measurement; for Assay 3: MMS-resistant / Assay 5: Triple resistant: YES/NO; for Assay 3: MMS-resistant: * indicates partial; for Assay 5: Triple resistant: H2O2, cadmium and MMS; for Triple resistant: H2O2, CdCl2 and MMS
Method in brief: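 Resistance to CdCl2 or MMS stress (12 h exposure) was scored in WI-38 fibroblasts pretreated with compound at 0.25–20 μM final, five doses, technical triplicates. MMS plates had compound added 24 h before MMS, after a shift to serum-free DMEM+2% BSA. Significance came from a global variance t-test over two independent runs.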

[2] = test system: PC12 cells expressing poly(Q)103-Htt-EGFP; test: Poly(Q) toxicity & viability analysis (cellular model of Huntington's disease); assay type: cell-based, rat; conditions: for M = Huntington's poly-Q toxicity attenuation: score; for K = Huntington's poly-Q toxicity attenuation: summary score
Method in brief: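 Readout is CellTiter-Glo ATP content measured after 48 hrs. Cells are a PC12 line stably expressing inducible poly(Q)103-Htt-EGFP, where induction produces toxic aggregates.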

[3] = test system: phosphorylated γH2A.X and TP53BP1; test: DNA damage marker analysis (immuno-staining); conditions: for activity at 10 µM: Homo sapiens, WI-38, 24 h; for P = Potential DNA-damaging / R = Potential DNA damaging: human, 24 h
Method in brief: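 Immunofluorescence read-out for phospho-γH2A.X (Ser-139) and phospho-TP53BP1 (Ser-1778), with DAPI nuclear stain and automated imaging at 10×. WI-38 cells (~8,000 per well) were exposed to small molecules for 24 h after 24 h of culture, with doxorubicin (300 nM, 24 h) or H2O2 (700 μM, 3 h) as positive damage controls.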

[4] = test system: WI-38 cells; test: Long-term effects on cell viability (5 days, ATP; morphology, PI imaging); assay type: cell-based; conditions: 10 μM; for Luminescence signal for ATP measurement, day-1 Average / Luminescence signal for ATP measurement, day-2 Average / Luminescence signal for ATP measurement, day-3 Average / Luminescence signal for ATP measurement, day-4 Average / Luminescence signal for ATP measurement, day-5 Average / viability at 10 µM: Batch 1; for Luminescence signal for ATP measurement, day-1 Average / Luminescence signal for ATP measurement, day-2 Average / Luminescence signal for ATP measurement, day-3 Average / Luminescence signal for ATP measurement, day-4 Average / Luminescence signal for ATP measurement, day-5 Average: n = 6, day-0 luminescence = 320956 ± 24708; for viability at 10 µM: Homo sapiens, WI-38, 120 h, DMSO ctrl = 100.0%, read-out: ATP luminescence by day-5 normalized; for Luminescence signal for ATP measurement, day-5 Average / viability at 10 µM: day-5; for O = Potential toxicity / Q = Potential toxicity: human, 5 days;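 on Luminescence signal for ATP measurement, day-2 Average: compounds at 10 µM with ATP read daily over 5 days of treatment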;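 on Luminescence signal for ATP measurement, day-3 Average: compounds at 10 µM with ATP read daily over 5 days of treatment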;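 on Luminescence signal for ATP measurement, day-4 Average: compounds at 10 µM with ATP read daily over 5 days of treatment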;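 on Luminescence signal for ATP measurement, day-5 Average: compounds at 10 µM with ATP read daily over 5 days of treatment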
[5] = test system: WI-38 cells; conditions: for No H2O2 stress treatment, at 10 uM (fold change): normalized ATP measurement; for Assay 1: H2O2-resistant: YES/NO, if NO, possibly due to repeated freezing/thawing of stocks
[6] = Exp. 1, WI-38 cells, read-out: Exp. 1, under MMS stress treatment, at 10 uM (fold change)
[7] = Exp. 2, WI-38 cells, read-out: Exp. 2, under MMS stress treatment, at 10 uM (fold change)
[8] = score in summary of 38 core set hits
[9] = read-out: Experiment 1, H2A.X-P DNA damage foci staining (no H2O2 stress treatment), at 10 uM
[10] = read-out: Experiment 2, H2A.X-P DNA damage foci staining (no H2O2 stress treatment), at 10 uM
[11] = read-out: Experiment 2, H2A.X-P DNA damage foci staining (under H2O2 stress treatment), at 10 uM
[12] = read-out: Experiment 2, TP53BP1-P DNA damage foci staining (no H2O2 stress treatment), at 10 uM
[13] = read-out: Experiment 2, TP53BP1-P DNA damage foci staining (under H2O2 stress treatment), at 10 uM
[14] = WI-38 cells, 10 μM, (*) = compromised ability to protect cells from H2O2, could be due to stability issue
[15] = asterisks indicate the loss of the ability to protect cells from H2O2 over time
[16] = derived from dose response curves, 0.6-20 uM, H2O2-resistance of WI-38 cells
[17] = read-out: Est. ED50, dose response 0.6-20 μM, H2O2-resistance

SMILES | B = MMS resistant [1, 8] | B = MMS resistant ([1]; summary score) | D = Triple resistant ([1]; summary score) | M = Huntington's poly-Q toxicity attenuation [2] | K = Huntington's poly-Q toxicity attenuation [2] | activity at 10 µM [3, 9] [%] | activity at 10 µM [3, 10] [%] | activity at 10 µM [3, 11] [%] | activity at 10 µM [3, 12] [%] | P = Potential DNA-damaging [3] | R = Potential DNA damaging [3] | Luminescence signal for ATP measurement, day-1 Average [4] | Luminescence signal for ATP measurement, day-2 Average [4] | Luminescence signal for ATP measurement, day-3 Average [4] | Luminescence signal for ATP measurement, day-4 Average [4] | Luminescence signal for ATP measurement, day-5 Average [4] | viability at 10 µM [4] [%] | O = Potential toxicity [4] | Q = Potential toxicity [4] | H2O2-resistant [5, 14] | further results
CCc1ccc(Oc2nc3ccccn3c(=O)c2/C=C(\C#N)C(=O)NCc2ccco2)cc1 [Gr-5B] | 0 | 0 | 0 | 0 | 0 | 100 | 128 | 168 | 223 | 0 | 0 | 529430 | 736318 | 867160 | 1091073 | 1104305 | 108 | 0 | 0 | YES | fold induction at 10 µM [1, 6]: 1.13; fold induction at 10 µM [1, 7]: 1.36; activity at 10 µM [3, 13]: 540%; No H2O2 stress treatment, at 10 uM (fold change) ([5]; WI-38 cells): 1.19 fold change; H2O2-resistant [5, 15]: YES; EC50 [5, 16]: 8.7 µM; EC50 [5, 17]: 14.3 µM
CNC(=O)/C(C#N)=C/c1c(Oc2ccc(C(C)(C)C)cc2)nc2ccccn2c1=O [Gr-5D] | 0 | 1 | 2 | 0 | 0 | 94.1 | 75 | 112 | 145 | 0 | 0 | 498641 | 763806 | 920681 | 1052285 | 1110868 | 108 | 0 | 0 | YES (*) | Assay 3: MMS-resistant [1]: YES; Assay 5: Triple resistant [1]: YES; activity at 10 µM [3, 13]: 480%; No H2O2 stress treatment, at 10 uM (fold change) ([5]; WI-38 cells): 1.14 fold change; Assay 1: H2O2-resistant [5]: YES; H2O2-resistant [5, 15]: YES (*); EC50 [5, 17]: 18.7 µM
Cc1cc(N)n(-c2ccccc2C(=O)O)n1 [Gr-6A] | 1 | 1 | 2 | 0 | 0 | 117 | 59.9 | 200 | 138 | 0 | 0 | 581273 | 717601 | 804970 | 1007061 | 986943 | 96.1 | 0 | 0 | YES | MMS-resistant [1]: YES; Multiplex resistance to cadmium, MMS and H2O2 ([1]; 0.25 μM to 20 μM, repurchased molecules): reproducibly conferred multiplex resistance; Triple resistant [1]: YES; fold induction at 10 µM [1, 6]: 2.2; fold induction at 10 µM [1, 7]: 7.2; MMS-resistant ([1]; WI-38 cells, 10 μM): YES; Triple resistant ([1]; WI-38 cells, 10 μM): YES; Assay 3: MMS-resistant [1]: YES; Assay 5: Triple resistant [1]: YES; No H2O2 stress treatment, at 10 uM (fold change) ([5]; WI-38 cells): 1.10 fold change; Assay 1: H2O2-resistant [5]: YES; H2O2-resistant [5, 15]: YES; EC50 [5, 16]: 13.8 µM; EC50 [5, 17]: 40.5 µM
O=C(/C=C/c1cn(-c2ccccc2)nc1-c1cccnc1)c1ccccc1 [Gr-6B] | 0 | 1 | 2 | 1 | 1 | 93.4 | 112 | 136 | 176 | 0 | 0 | 467756 | 641901 | 736245 | 969598 | 953988 | 92.9 | 0 | 0 | YES | fold induction at 10 µM [1, 6]: 2.12; fold induction at 10 µM [1, 7]: 1.22; Assay 3: MMS-resistant [1]: YES; Assay 5: Triple resistant [1]: YES; Viability of PC12 cells upon induction of toxic poly(Q)103-Htt-EGFP aggregates ([2]; 2.5 μM, 5 μM, 10 μM and 20 μM): consistently increased the viability; Assay 20: Huntington's poly-Q toxicity attenuation ([2]; 10 uM, YES/NO): YES; activity at 10 µM [3, 13]: 272%; No H2O2 stress treatment, at 10 uM (fold change) ([5]; WI-38 cells): 1.10 fold change; Assay 1: H2O2-resistant [5]: YES; H2O2-resistant [5, 15]: YES; EC50 [5, 17]: 45.1 µM
N=C1S/C(=C\c2cn(-c3ccccc3)nc2-c2cccs2)C(=O)N1c1nccs1 [Gr-6C] | 0 | 0 | 0 | 0 | 0 | 181 | 300 | 43 | 290 | 1 | 1 | 435273 | 542716 | 574765 | 624471 | 548865 | 53.5 | 0 | 1 | YES (*) | activity at 10 µM [3, 13]: 440%; No H2O2 stress treatment, at 10 uM (fold change) ([5]; WI-38 cells): .096 fold change; H2O2-resistant [5, 15]: YES (*); EC50 [5, 16]: 16.2 µM; EC50 [5, 17]: 48.5 µM
O=C(NCc1cccnc1)/C(=C\c1cccc(Oc2ccccc2)c1)S(=O)(=O)c1ccccc1 [Gr-7A] | 0 | 0 | 0 | 0 | 0 | 337 | 246 | 113 | 363 | 0 | 0 | 463265 | 192116 | 67526 | 48480 | 44670 | 4.4 | 0 | 1 | YES (*) | fold induction at 10 µM [1, 6]: 0.96; fold induction at 10 µM [1, 7]: 2.21; activity at 10 µM [3, 13]: 516%; No H2O2 stress treatment, at 10 uM (fold change) ([5]; WI-38 cells): 0.78 fold change; Assay 1: H2O2-resistant [5]: YES; H2O2-resistant [5, 15]: YES (*); EC50 [5, 16]: 16.1 µM; EC50 [5, 17]: 58.4 µM
